# Measured values from patent US7300946B2, “N-(substituted arylmethyl)-4-(disubstituted methyl) piperidines and pyridines” (Bayer CropScience AG, priority 2002, dated 2007).
# System: tobacco budworm (Heliothis virescens [Fabricius])
# Experiment: surface-treated diet test against the tobacco budworm
# Assay type: in vivo
# Conditions: tobacco budworm second instar larvae, surface-treated diet, 0.25 millimoles of candidate insecticide on the surface of the diet, five-day exposure; for Percent Mortality: compared to total number of insects infested; for Percent Growth Inhibition: inhibition of insect weight relative to untreated controls
# Experimental: Candidate insecticides were evaluated for activity against the tobacco budworm (Heliothis virescens [Fabricius]) in a surface-treated diet test.
# In this test one mL of molten (65–70° C.) wheat germ-based artificial diet was pipetted into each well of a four by six (24 well) multi-well plate (ID# 430345-15.5 mm dia.×17.6 mm deep; Corning Costar Corp., One Alewife Center, Cambridge, Mass. 02140). The diet was allowed to cool to ambient temperature before treatment with candidate insecticide.
# For a determination of insecticidal activity, solutions of the candidate insecticides were prepared for testing using a Packard 204DT Multiprobe® Robotic System (Packard Instrument Company, 800 Research Parkway, Meriden, Conn. 06450), in which the robot first diluted a standard 50 millimolar DMSO solution of candidate insecticide with a 1:1 water/acetone solution (V/V) in a ratio of 1:7 stock solution to water/acetone. The robot subsequently pipetted 40 microliters of the so-prepared solution onto the surface of the diet in each of three wells in the 24 multi-well plate. The process was repeated with solutions of seven other candidate insecticides. Once treated, the contents of the multi-well plate were allowed to dry, leaving 0.25 millimoles of candidate insecticide on the surface of the diet, or a concentration of 0.25 millimolar. Appropriate untreated controls containing only DMSO on the diet surface were also included in this test. […]
# In each well of the test plate was placed one second instar tobacco budworm larvea, each weighing approximately five milligrams. After the larvae were placed in each well, the plate was sealed with clear polyfilm adhesive tape. The tape over each well was perforated to ensure an adequate air supply. The plates were then held in a growth chamber at 25° C. and 60% relative humidity for five days (light 14 hours/day).
# After the five-day exposure period insecticidal activity for each rate of application of candidate insecticide was assessed as percent inhibition of insect weight relative to the weight of insects from untreated controls, and percent mortality when compared to the total number of insects infested.
# The test compounds of formula I are identified by numbers that correspond to those in Table 1.
# These tests were conducted with 0.25 millimoles of candidate insecticide on the surface of the diet.
smiles,measurement,value
FC(F)(F)c1ccc(C(=C2CCN(Cc3ccccc3)CC2)c2ccccc2)cc1 [Compound 30],Percent Mortality,100%
same,Percent Growth Inhibition,54%
Fc1ccc(C(=C2CCN(Cc3ccccc3)CC2)c2ccc(C(F)(F)F)cc2)cc1 [Compound 31],Percent Mortality,17%
same,Percent Growth Inhibition,99%
COc1ccc(CN2CCC(=C(c3ccc(OC(F)(F)F)cc3)c3ccc(OC(F)(F)F)cc3)CC2)cc1 [Compound 42],Percent Mortality,100%
same,Percent Growth Inhibition,100%
CCCOc1ccc(CN2CCC(=C(c3ccc(O)cc3)c3ccc(O)cc3)CC2)cc1 [Compound 44],Percent Mortality,67%
same,Percent Growth Inhibition,100%
CCCOc1ccc(CN2CCC(=C(c3cccc(C(F)(F)F)c3)c3cccc(C(F)(F)F)c3)CC2)cc1 [Compound 45],Percent Mortality,0%
same,Percent Growth Inhibition,24%
CCCOc1ccc(CN2CCC(=C(c3cccc(OC(F)(F)F)c3)c3cccc(OC(F)(F)F)c3)CC2)cc1 [Compound 47],Percent Mortality,0%
same,Percent Growth Inhibition,11%
CCCOc1ccc(CN2CCC(=C(c3ccc(OC(F)(F)F)cc3)c3ccc(OC(F)(F)F)cc3)CC2)cc1 [Compound 48],Percent Mortality,100%
same,Percent Growth Inhibition,100%
CCOC(=O)c1ccc(CN2CCC(=C(c3ccc(C(F)(F)F)cc3)c3ccc(C(F)(F)F)cc3)CC2)cc1 [Compound 50],Percent Mortality,67%
same,Percent Growth Inhibition,96%
CC(C)OC(=O)c1ccc(CN2CCC(=C(c3ccc(C(F)(F)F)cc3)c3ccc(C(F)(F)F)cc3)CC2)cc1 [Compound 51],Percent Mortality,0%
same,Percent Growth Inhibition,26%
CC(=O)Nc1ccc(CN2CCC(=C(c3ccc(C(F)(F)F)cc3)c3ccc(C(F)(F)F)cc3)CC2)cc1 [Compound 52],Percent Mortality,33%
same,Percent Growth Inhibition,100%
O=C(Nc1ccc(CN2CCC(=C(c3ccc(C(F)(F)F)cc3)c3ccc(C(F)(F)F)cc3)CC2)cc1)C(F)(F)F [Compound 53],Percent Mortality,0%
same,Percent Growth Inhibition,100%
COC(=O)Nc1ccc(CN2CCC(=C(c3ccc(C(F)(F)F)cc3)c3ccc(C(F)(F)F)cc3)CC2)cc1 [Compound 54],Percent Mortality,100%
same,Percent Growth Inhibition,100%
"CCOC(=O)Nc1ccc(CN2CCC(=C(c3ccc(C(F)(F)F)cc3)c3ccc(C(F)(F)F)cc3)CC2)cc1 [Compound 55, N-{4-[(4-{bis[4-(trifluoromethyl)phenyl]methylene}piperidyl)methyl]phenyl}ethoxycarboxamide]",Percent Mortality,100%
same,Percent Growth Inhibition,100%
CCOC(=O)N(C)c1ccc(CN2CCC(=C(c3ccc(C(F)(F)F)cc3)c3ccc(C(F)(F)F)cc3)CC2)cc1 [Compound 56],Percent Mortality,100%
same,Percent Growth Inhibition,100%
CCCOC(=O)Nc1ccc(CN2CCC(=C(c3ccc(C(F)(F)F)cc3)c3ccc(C(F)(F)F)cc3)CC2)cc1 [Compound 57],Percent Mortality,100%
same,Percent Growth Inhibition,100%
CC(C)OC(=O)Nc1ccc(CN2CCC(=C(c3ccc(C(F)(F)F)cc3)c3ccc(C(F)(F)F)cc3)CC2)cc1 [Compound 58],Percent Mortality,100%
same,Percent Growth Inhibition,100%
CC(C)COC(=O)Nc1ccc(CN2CCC(=C(c3ccc(C(F)(F)F)cc3)c3ccc(C(F)(F)F)cc3)CC2)cc1 [Compound 59],Percent Mortality,0%
same,Percent Growth Inhibition,59%
CCON=Cc1ccc(CN2CCC(=C(c3ccc(C(F)(F)F)cc3)c3ccc(C(F)(F)F)cc3)CC2)cc1 [Compound 60],Percent Mortality,100%
same,Percent Growth Inhibition,100%
FC(F)(F)c1ccc(C(=C2CCN(Cc3ccc(OCc4nccs4)cc3)CC2)c2ccc(C(F)(F)F)cc2)cc1 [Compound 61],Percent Mortality,100%
same,Percent Growth Inhibition,100%
Cn1nnc(-c2ccc(CN3CCC(=C(c4ccc(Cl)cc4)c4ccc(C(F)(F)F)cc4)CC3)cc2)n1 [Compound 74],Percent Mortality,100%
same,Percent Growth Inhibition,100%
Cn1nnc(-c2ccc(CN3CCC(=C(c4ccc(C(F)(F)F)cc4)c4ccc(C(F)(F)F)cc4)CC3)cc2)n1 [Compound 75],Percent Mortality,100%
same,Percent Growth Inhibition,96%
CCn1nnc(-c2ccc(CN3CCC(=C(c4ccccc4)c4ccc(Cl)cc4)CC3)cc2)n1 [Compound 76],Percent Mortality,0%
same,Percent Growth Inhibition,91%
CCn1nnc(-c2ccc(CN3CCC(=C(c4ccc(Cl)cc4)c4ccc(Cl)cc4)CC3)cc2)n1 [Compound 77],Percent Mortality,100%
same,Percent Growth Inhibition,100%
CCn1nnc(-c2ccc(CN3CCC(=C(c4ccc(F)cc4)c4ccc(F)cc4)CC3)cc2)n1 [Compound 78],Percent Mortality,67%
same,Percent Growth Inhibition,100%
CCn1nnc(-c2ccc(CN3CCC(=C(c4ccc(F)cc4)c4ccc(Cl)cc4)CC3)cc2)n1 [Compound 79],Percent Mortality,83%
same,Percent Growth Inhibition,100%
CCn1nnc(-c2ccc(CN3CCC(=C(c4ccccc4)c4ccc(C(F)(F)F)cc4)CC3)cc2)n1 [Compound 80],Percent Mortality,33%
same,Percent Growth Inhibition,100%
CCn1nnc(-c2ccc(CN3CCC(=C(c4ccc(F)cc4)c4ccc(C(F)(F)F)cc4)CC3)cc2)n1 [Compound 81],Percent Mortality,100%
same,Percent Growth Inhibition,100%
CCn1nnc(-c2ccc(CN3CCC(=C(c4ccc(C(F)(F)F)cc4)c4ccc(C(F)(F)F)cc4)CC3)cc2)n1 [Compound 82],Percent Mortality,100%
same,Percent Growth Inhibition,100%
CCn1nnc(-c2ccc(CN3CCC(=C(c4ccc5c(c4)OC(F)(F)O5)c4ccc5c(c4)OC(F)(F)O5)CC3)cc2)n1 [Compound 83],Percent Mortality,100%
same,Percent Growth Inhibition,100%
O=C(CCN1CCC(=C(c2ccccc2)c2ccccc2)CC1)c1ccccc1 [Compound 85],Percent Mortality,100%
same,Percent Growth Inhibition,100%
[O-][N+]1(Cc2ccc(OCC3CC3)cc2)CCC(=C(c2ccc(C(F)(F)F)cc2)c2ccc(C(F)(F)F)cc2)CC1 (centres unmarked) [Compound 98],Percent Mortality,100%
same,Percent Growth Inhibition,100%
CCOC(=O)c1ccc(C[N+]2([O-])CCC(=C(c3ccc(C(F)(F)F)cc3)c3ccc(C(F)(F)F)cc3)CC2)cc1 (centres unmarked) [Compound 99],Percent Mortality,100%
same,Percent Growth Inhibition,100%
CC(C)OC(=O)c1ccc(C[N+]2([O-])CCC(=C(c3ccc(C(F)(F)F)cc3)c3ccc(C(F)(F)F)cc3)CC2)cc1 (centres unmarked) [Compound 100],Percent Mortality,100%
same,Percent Growth Inhibition,100%
"CCOC(=O)Nc1ccc(C[N+]2([O-])CCC(=C(c3ccc(C(F)(F)F)cc3)c3ccc(C(F)(F)F)cc3)CC2)cc1 (centres unmarked) [Compound 101, N-{4-[(4-{bis[4-(trifluoromethyl)phenyl]methylene}piperidyl)methyl]phenyl}ethoxycarboxamide, N-oxide]",Percent Mortality,100%
same,Percent Growth Inhibition,100%
CCCOC(=O)Nc1ccc(C[N+]2([O-])CCC(=C(c3ccc(C(F)(F)F)cc3)c3ccc(C(F)(F)F)cc3)CC2)cc1 (centres unmarked) [Compound 102],Percent Mortality,100%
same,Percent Growth Inhibition,100%
CC(C)OC(=O)Nc1ccc(C[N+]2([O-])CCC(=C(c3ccc(C(F)(F)F)cc3)c3ccc(C(F)(F)F)cc3)CC2)cc1 (centres unmarked) [Compound 103],Percent Mortality,100%
same,Percent Growth Inhibition,100%
CC(C)COC(=O)Nc1ccc(C[N+]2([O-])CCC(=C(c3ccc(C(F)(F)F)cc3)c3ccc(C(F)(F)F)cc3)CC2)cc1 (centres unmarked) [Compound 104],Percent Mortality,100%
same,Percent Growth Inhibition,100%
[O-][N+]1(Cc2ccc(OCc3nccs3)cc2)CCC(=C(c2ccc(C(F)(F)F)cc2)c2ccc(C(F)(F)F)cc2)CC1 (centres unmarked) [Compound 105],Percent Mortality,100%
same,Percent Growth Inhibition,100%
[O-][N+]1(Cc2ccc(Oc3ccccn3)cc2)CCC(=C(c2ccc(C(F)(F)F)cc2)c2ccc(C(F)(F)F)cc2)CC1 (centres unmarked) [Compound 106],Percent Mortality,100%
same,Percent Growth Inhibition,100%
[O-][N+]1(Cc2ccc(Oc3ccc(Cl)cn3)cc2)CCC(=C(c2ccc(C(F)(F)F)cc2)c2ccc(C(F)(F)F)cc2)CC1 (centres unmarked) [Compound 107],Percent Mortality,100%
same,Percent Growth Inhibition,100%
[O-][N+]1(Cc2ccc(Oc3cccc(Cl)n3)cc2)CCC(=C(c2ccc(C(F)(F)F)cc2)c2ccc(C(F)(F)F)cc2)CC1 (centres unmarked) [Compound 108],Percent Mortality,100%
same,Percent Growth Inhibition,100%
[O-][N+]1(Cc2ccc(Oc3ncccc3C(F)(F)F)cc2)CCC(=C(c2ccc(C(F)(F)F)cc2)c2ccc(C(F)(F)F)cc2)CC1 (centres unmarked) [Compound 109],Percent Mortality,100%
same,Percent Growth Inhibition,100%
N#Cc1ccc(Oc2ccc(C[N+]3([O-])CCC(=C(c4ccc(C(F)(F)F)cc4)c4ccc(C(F)(F)F)cc4)CC3)cc2)nc1 (centres unmarked) [Compound 111],Percent Mortality,100%
same,Percent Growth Inhibition,100%
